The test system of this test is Bak, Bcl-2, cleaved PARP. The test can be described thus: Western blot of Bak, Bcl-2, PARP in GC cells. Type of test: cell-based, human. To be noted: SNU-1 and HGC27. On the procedure: SNU-1, HGC27 and NCI-N87 cells were starved in serum-free medium overnight, exposed to inhibitors for 48 h and harvested at 70–80% confluence. Total protein was extracted from cells or xenograft tissues on ice, using RIPA Lysis Buffer (Beyotime, Shanghai, China) supplemented with complete protease inhibitor and phosphatase inhibitor cocktail (Roche, Basel, Switzerland). Protein concentration was measured using a BCA Protein Assay Kit (Beyotime, Shanghai, China), and 50 μg protein from each sample was separated by 10% SDS-PAGE. After transfer to nitrocellulose membranes (GE Healthcare, Piscataway, NJ), samples were incubated with corresponding primary antibodies diluted in 5% BSA at 4 °C overnight and then with secondary antibodies at room temperature for 1 h. […] Western-blotting bands were quantified and normalized by ImageJ software.
Cells were treated with gimatecan (0–1 µM) and irinotecan (0–1 µM) for 24 h and stained with Annexin V-PE/7-AAD. Sums of percentages of early apoptosis (Q3) and late apoptosis (Q2) were calculated as the total apoptosis ratios. c, d Pro- and anti-apoptotic proteins including Bcl-2, Bak, PARP and cleaved PARP were assessed by western-blotting in SNU-1 and NCI-N87 cells. Western-blotting bands were quantified and normalized by ImageJ. […]
On the technique in general: Immunoblotting shows a protein as a band on a membrane.

SMILES strings stand for the structures. Where a name gives a salt, the structure may show the parent alone.

With `CC[C@@]1(O)C(=O)OCc2c1cc1n(c2=O)Cc2c-1nc1ccccc1c2/C=N/OC(C)(C)C` [Gimatecan, 7-t-butoxyiminomethylcamptothecin], the “Bak, Bcl-2 and PARP protein after treatment” value was “Bak and cleaved PARP expression was increased and Bcl-2 expression was inhibited”.

As for `CCc1c2c(nc3ccc(OC(=O)N4CCC(N5CCCCC5)CC4)cc13)-c1cc3c(c(=O)n1C2)COC(=O)[C@]3(O)CC` [Irinotecan, irinotecan hydrochloride], the “Bak, Bcl-2 and PARP protein after treatment” value is “apoptosis was not induced”.
